In PubChem BioAssay AID330 (DTP/NCI, 2004):
Values joined by “and” are separate entries in the source; they are usually repeats but may differ in a detail not shown here. Equal entries are not always repeated. Toxic doses and inconclusive results are not listed. The calls were made as follows: active = survival T/C of 150% or more; inactive = T/C below 125% in these data.

Tested on: P388 leukemia ip, CD2F1 mice, survival T/C
Assay: NCI In Vivo Anticancer Drug Screen. Data for tumor model P388 Leukemia (intraperitoneal) in CD2F1 (CDF1) mice
Conditions: endpoint: median survival time, higher = longer survival
Procedure, shortened: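 Mice carrying the transplanted tumor received test compound or vehicle. Survival was recorded in each group, and the value is the treated-group measurement divided by that of the vehicle-treated control group.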

[1] = dose: 6.25 mg/kg/injection, schedule: Q01DX009 (ip), vehicle: saline
[2] = dose: 12.5 mg/kg/injection, schedule: Q01DX009 (ip), vehicle: saline
[3] = dose: 100.0 mg/kg/injection, schedule: Q01DX001 (ip), vehicle: saline with Tween-80
[4] = dose: 400.0 mg/kg/injection, schedule: Q01DX001 (ip), vehicle: saline with Tween-80
[5] = dose: 12.5 mg/kg/injection, schedule: Q01DX005 (ip), vehicle: Klucel (hydroxypropylcellulose) (HPC)
[6] = dose: 25.0 mg/kg/injection, schedule: Q01DX005 (ip), vehicle: Klucel (hydroxypropylcellulose) (HPC)
[7] = dose: 50.0 mg/kg/injection, schedule: Q01DX005 (ip), vehicle: Klucel (hydroxypropylcellulose) (HPC)
[8] = dose: 50.0 mg/kg/injection, schedule: Q01DX005 (ip), vehicle: saline with Tween-80
[9] = dose: 100.0 mg/kg/injection, schedule: Q01DX005 (ip), vehicle: saline with Tween-80
[10] = dose: 200.0 mg/kg/injection, schedule: Q01DX005 (ip), vehicle: saline with Tween-80
[11] = dose: 50.0 mg/kg/injection, schedule: Q01DX009 (ip), vehicle: saline with Tween-80
[12] = dose: 100.0 mg/kg/injection, schedule: Q01DX009 (ip), vehicle: saline with Tween-80
[13] = dose: 200.0 mg/kg/injection, schedule: Q01DX009 (ip), vehicle: saline with Tween-80
[14] = dose: 100.0 mg/kg/injection, schedule: Q01DX005 (ip), vehicle: Klucel (hydroxypropylcellulose) (HPC)
[15] = dose: 200.0 mg/kg/injection, schedule: Q01DX005 (ip), vehicle: Klucel (hydroxypropylcellulose) (HPC)
[16] = dose: 60.0 mg/kg/injection, schedule: Q01DX005 (ip), vehicle: saline with Tween-80
[17] = dose: 120.0 mg/kg/injection, schedule: Q01DX005 (ip), vehicle: saline with Tween-80
[18] = dose: 240.0 mg/kg/injection, schedule: Q01DX005 (ip), vehicle: saline with Tween-80
[19] = dose: 100.0 mg/kg/injection, schedule: Q04DX003 (ip), vehicle: saline
[20] = dose: 200.0 mg/kg/injection, schedule: Q04DX003 (ip), vehicle: saline
[21] = dose: 400.0 mg/kg/injection, schedule: Q04DX003 (ip), vehicle: saline

Measured: T/C

CC1(C)CC(=O)C([Se]C2=C(O)CC(C)(C)CC2=O)=C(O)C1
inactive: [1] 101 % of control | [2] 104 % of control | dose: 25.0 mg/kg/injection, schedule: Q01DX009 (ip), vehicle: saline 111 % of control

CC(=O)OC1CCC2(C)C(=CCC3C2CCC2(C)C3CC3N(c4ccccc4Cl)C32C(C)=O)C1 (stereo not given)
inactive: dose: 25.0 mg/kg/injection, schedule: Q01DX001 (ip), vehicle: saline with Tween-80 93 % of control | dose: 50.0 mg/kg/injection, schedule: Q01DX001 (ip), vehicle: saline with Tween-80 95 % of control | [3] 99 % of control and 90 % of control | [4] 89 % of control

C=CCn1c(COc2c(I)cc(I)c3cccnc23)n[nH]c1=S
inactive: dose: 6.25 mg/kg/injection, schedule: Q01DX005 (ip), vehicle: Klucel (hydroxypropylcellulose) (HPC) 100 % of control and 96 % of control | [5] 108 % of control and 115 % of control | [6] 106 % of control | [7] 114 % of control

O=c1c(Br)cn(Cc2ccccc2)cc1Br
inactive: dose: 50.0 mg/kg/injection, schedule: Q01DX005 (ip), vehicle: saline 92 % of control | dose: 100.0 mg/kg/injection, schedule: Q01DX005 (ip), vehicle: saline 95 % of control | dose: 200.0 mg/kg/injection, schedule: Q01DX005 (ip), vehicle: saline 90 % of control

NCCCCC(C(=O)NC(Cc1ccccc1)C(=O)O)N(C(=O)OCc1ccccc1)C(=O)OCc1ccccc1 (stereo not given)
inactive: [8] 96 % of control | [9] 101 % of control | [10] 92 % of control

Cc1[nH]c(=O)[nH]c(=O)c1C=O
inactive: [11] 103 % of control | [12] 106 % of control | [13] 99 % of control

Cc1noc2c1NC(=O)OC(C)(C)C2
inactive: [5] 102 % of control | [6] 105 % of control | [7] 100 % of control | [14] 104 % of control | [15] 101 % of control

Cc1ccc(NC(=O)N2CCCCC2)cc1NC(=O)N1CCCCC1
inactive: [16] 94 % of control | [17] 91 % of control | [18] 88 % of control

O=C1OCCN1CCCl
inactive: dose: 100.0 mg/kg/injection, schedule: Q01DX009 (ip), vehicle: Klucel (hydroxypropylcellulose) (HPC) 118 % of control | dose: 200.0 mg/kg/injection, schedule: Q01DX009 (ip), vehicle: Klucel (hydroxypropylcellulose) (HPC) 121 % of control | dose: 400.0 mg/kg/injection, schedule: Q01DX009 (ip), vehicle: Klucel (hydroxypropylcellulose) (HPC) 121 % of control

CC1N(/N=C/c2ccccc2)C(c2ccccc2)C(c2ccccc2)N1/N=C/c1ccccc1 (stereo not given)
inactive: [7] 99 % of control | [14] 98 % of control | [15] 99 % of control

O=C1c2cc3c(cc2C(=O)c2[nH]ncc21)OCO3
inactive: [16] 92 % of control | [17] 100 % of control | [18] 96 % of control

OCC1OC(O)C(N=C/C=C/c2ccccc2)C(O)C1O (stereo not given)
inactive: [8] 104 % of control | [9] 117 % of control | [10] 115 % of control

CN(c1ccccc1)S(=O)(=O)c1ccccc1
inactive: [12] 95 % of control | [13] 95 % of control | dose: 200.0 mg/kg/injection, schedule: Q04DX003 (ip), vehicle: saline with Tween-80 100 % of control | dose: 400.0 mg/kg/injection, schedule: Q01DX009 (ip), vehicle: saline with Tween-80 100 % of control | dose: 400.0 mg/kg/injection, schedule: Q04DX003 (ip), vehicle: saline with Tween-80 87 % of control

COc1c2c(cc3c1OCO3)[C@]13C=C[C@H](OC)C[C@H]1N(C2)CC3O (stereo not given in full)
inactive: dose: 0.63 mg/kg/injection, schedule: Q01DX009 (ip), vehicle: saline with Tween-80 90 % of control | dose: 1.25 mg/kg/injection, schedule: Q01DX001 (ip), vehicle: saline 100 % of control | dose: 1.25 mg/kg/injection, schedule: Q01DX009 (ip), vehicle: saline with Tween-80 86 % of control | dose: 2.5 mg/kg/injection, schedule: Q01DX001 (ip), vehicle: saline 109 % of control | dose: 5.0 mg/kg/injection, schedule: Q01DX001 (ip), vehicle: saline with Tween-80 90 % of control

COC1OC(CNC(=O)N(CCCl)N=O)C(O)C(O)C1O (stereo not given)
active: dose: 1.56 mg/kg/injection, schedule: Q01DX009 (ip), vehicle: saline 182 % of control | dose: 3.12 mg/kg/injection, schedule: Q01DX009 (ip), vehicle: saline 204 % of control | dose: 3.12 mg/kg/injection, schedule: Q04DX002 (ip), vehicle: saline 157 % of control | [1] 248 % of control | dose: 6.25 mg/kg/injection, schedule: Q04DX002 (ip), vehicle: saline 212 % of control | dose: 10.0 mg/kg/injection, schedule: Q04DX002 (ip), vehicle: saline 278 % of control | [2] 263 % of control | dose: 12.5 mg/kg/injection, schedule: Q04DX002 (ip), vehicle: saline 277 % of control | dose: 20.0 mg/kg/injection, schedule: Q04DX002 (ip), vehicle: saline 288 % of control | dose: 25.0 mg/kg/injection, schedule: Q04DX002 (ip), vehicle: saline 222 % of control
inactive: dose: 40.0 mg/kg/injection, schedule: Q04DX002 (ip), vehicle: saline 86 % of control

COC(=O)C1C(=O)CC2C(C(=O)OC)C(=O)CC12 (stereo not given)
inactive: [11] 99 % of control | [12] 95 % of control | [13] 98 % of control

CCOc1cc2cc(CCC#N)c(C)cc2cn1
inactive: dose: 12.5 mg/kg/injection, schedule: Q01DX009 (ip), vehicle: distilled water + Tween-80 93 % of control | dose: 25.0 mg/kg/injection, schedule: Q01DX009 (ip), vehicle: distilled water + Tween-80 87 % of control | dose: 50.0 mg/kg/injection, schedule: Q01DX009 (ip), vehicle: distilled water + Tween-80 87 % of control

CCOC(=O)CC1=CSC(=C(C#N)C#N)N1c1ccccc1
inactive: [8] 102 % of control | [9] 98 % of control | [10] 98 % of control

COc1ccc2ncc(CO)c(CO)c2c1
inactive: [15] 100 % of control

O=CN1CCCC1Cc1ccccc1 (stereo not given)
inactive: dose: 50.0 mg/kg/injection, schedule: Q01DX001 (ip), vehicle: Klucel (hydroxypropylcellulose) (HPC) 101 % of control | dose: 100.0 mg/kg/injection, schedule: Q01DX001 (ip), vehicle: Klucel (hydroxypropylcellulose) (HPC) 96 % of control

CCc1ccccc1NC1=C(Cl)C(=O)c2ccccc2C1=O
inactive: [16] 104 % of control | [17] 107 % of control

CCc1ccccc1NC(=O)C(=O)CC(=O)CS(=O)(=O)c1ccc(C)cc1
inactive: [16] 103 % of control | [17] 100 % of control | [18] 103 % of control

CN=C(N)N/N=C(\C)c1ccc(Cl)c(Cl)c1
inactive: dose: 25.0 mg/kg/injection, schedule: Q04DX002 (ip), vehicle: saline with Tween-80 100 % of control | dose: 50.0 mg/kg/injection, schedule: Q04DX002 (ip), vehicle: saline with Tween-80 99 % of control

CCN(CC)c1ccc2cc(S(=O)(=O)c3ccc(C)cc3)c(=O)oc2c1
inactive: [8] 96 % of control

C1=NCCN=Cc2ccccc2NCCNc2ccccc21
inactive: [19] 93 % of control | [20] 91 % of control | [21] 103 % of control

CC(C)(C)[Si](OC(=O)CCCc1ccc(N(CCCl)CCCl)cc1)(c1ccccc1)c1ccccc1
active: [8] 155 % of control and 175 % of control | [9] 255 % of control
inactive: dose: 25.0 mg/kg/injection, schedule: Q01DX005 (ip), vehicle: saline with Tween-80 123 % of control

CCOC(=O)C(N)CSC(c1ccccc1)(c1ccccc1)c1ccccc1 (stereo not given)
inactive: dose: 12.5 mg/kg/injection, schedule: Q01DX009 (ip), vehicle: water 117 % of control and 98 % of control | dose: 25.0 mg/kg/injection, schedule: Q01DX009 (oral), vehicle: water 114 % of control
active: dose: 50.0 mg/kg/injection, schedule: Q01DX009 (ip), vehicle: water 155 % of control | [20] 180 % of control

CCCN(C)C12CN3CN(CN(C3)C1)C2
inactive: [19] 106 % of control | [20] 95 % of control | [21] 100 % of control

CC(NC(=O)C1CC(O)CN1C(=O)CN)C(=O)O (stereo not given)
inactive: [7] 96 % of control | [14] 110 % of control | [15] 94 % of control

Cn1c(N)c(N=Nc2cccnc2)c(=O)n(C)c1=O
inactive: [3] 95 % of control | dose: 200.0 mg/kg/injection, schedule: Q01DX001 (ip), vehicle: saline with Tween-80 98 % of control | [4] 95 % of control
